# Experimental data published in patent US10532069B2, “Compositions and methods for treating joints” (DePuy Synthes Products, Inc., priority 2015, dated 2020).
# What was measured:
# [1] = system: Complete Freund's Adjuvant (CFA) induced joint inflammation in rat; test: CFA model of inflammatory arthritis, study CFA #2 (100 uL CFA); assay type: in vivo; conditions: daily oral, high dose 30 mg/kg, FIG. 8
# Protocol: In CFA #2 the same protocol was followed except for the lower dose of CFA which was intended to induce a less severe inflammatory reaction and subsequently milder pain. Also, daily oral ibuprofen (labeled as “IBR” in FIG. 8) was used as a positive control rather than diclofenac, at doses of 10 mg/kg and high 30 mg/kg. These doses were equivalent to human daily doses of […] and 3600 mg, respectively. Both are considered high doses of ibuprofen that are generally not recommended for long term use.
# [2] = system: Complete Freund's Adjuvant (CFA) induced joint inflammation in rat; conditions: CFA #1
# Protocol: Because OA is now known to have an inflammatory component, an animal model that mimics inflammatory arthritis was used to test HA/GlcN/CS formulations. Complete Freund's Adjuvant (CFA) comprises an emulsion of killed bacterial cells that is injected systemically or into the joint of a rat to induce severe inflammation. Two CFA studies were conducted, the first using a 200 uL injection of CFA to induce inflammation (CFA #1), the second using an injection volume of 100 uL (CFA #2). Test articles were prepared using the liquid/liquid formulation method described above.
# Von Frey filaments were used to assess mechano-allodynia (pain sensation from a normally non-painful stimulus) on days 6, 7, 8, 17, and 21 following CFA injection. […] This protocol was used to test the 18.0 and 1.8 mg/mL HA/GlcN/CS formulations. As with the rat MMT model, the cumulative improvements in pain relief were calculated. […] In this figure, the 1.8 mg/mL HA/GlcN/CS group and the 18 mg/mL HA/GlcN/CS group are labeled as “G/C 1.8 mg/ml” and “G/C 18 mg/ml”, respectively. The untreated group is labeled as “Untx” in this figure.
# [3] = system: PGPS (peptidoglycan polysaccharide) reactivation arthritis in male Lewis rats; test: PGPS model of episodic inflammatory arthritis: weight bearing and gait analysis; assay type: in vivo; conditions: PGPS second reactivation (after repriming)
# Protocol: The PGPS model of arthritis is used to simulate episodic inflammation of the joint. PGPS (peptidoglycan polysaccharide) is a streptococcal cell wall formulation that is injected directly into the joint of the test subject, resulting in a painful inflammatory response. Unlike the continuous FCA response, the inflammatory pain from PGPS is transient, typically lasting only a few days. Following this “priming” injection to the joint, subsequent systemic injections result in inflammatory flares in the previously injected joint for a period of several days. The “reactivation” inflammatory flares can be repeated multiple times, with the inflammatory pain generally decreasing with subsequent reactivation cycles. Alternatively, the joint can be “reprimed” following the initial reactivation, resulting in a more robust inflammatory response in subsequent reactivations.
# As with the rat MMT model, the effect of intra-articular therapies is assessed by static weight bearing measurements. […]
# In the present experiment, two reactivation cycles were induced in male Lewis rats following the initial PGPS intra-articular injection. […] Weight bearing and gait analysis scores were recorded on days 1, 4, 7, and 14 following the reactivation injection. […] Weight bearing and gait analysis scores were recorded on days 1, 2, 3, and 4 following reactivation. […]
compound,measurement,setting,value
CC(C)Cc1ccc(C(C)C(=O)O)cc1 (centres unmarked) [ibuprofen],pain relief as cumulative improvement in weight bearing deficiency,[1],significant improvement in pain relief
O=C(O)Cc1ccccc1Nc1c(Cl)cccc1Cl [diclofenac],safety (premature deaths of animals),[2],several animals in the diclofenac group died prematurely
same,AUC analysis of pain relief compared to HA alone,"[2]; comparison with HA alone, FIG. 7",statistically superior to HA alone
same,AUC analysis of pain relief (Von Frey mechano-allodynia),"[2]; single IA injection on day 5 after CFA (diclofenac daily oral), days 6, 7, 8, 17, 21, FIG. 7",significant improvement in pain relief
C[C@]12C=CC(=O)C=C1CC[C@H]1[C@@H]3C[C@@H](O)[C@](O)(C(=O)CO)[C@@]3(C)C[C@H](O)[C@@]12F [triamcinolone],weight bearing deficit,[3],significant improvement
